Source: the kinase profiling compilation of Christmann-Franck et al. (2016)

What was measured:
Assay in all cases: KINOMEscan competition binding
Conditions in all cases: compound 10.0 µM
KDR (human) = KDR (human) (UniProt P35968)
RPS6KA6 KD1 (human) = RPS6KA6 KD1 (human) (UniProt Q9UK32)
ROS1 (human) = ROS1 (human) (UniProt P08922)
STK25 (human) = STK25 (human) (UniProt O00506)
STK17A (human) = STK17A (human) (UniProt Q9UEE5)
MLTK (human) = MLTK (human) (UniProt Q9NYL2)
STK11 (human) = STK11 (human) (UniProt Q15831)
FLT4 (human) = FLT4 (human) (UniProt P35916)
PLK2 (human) = PLK2 (human) (UniProt Q9NYY3)
STK36 (human) = STK36 (human) (UniProt Q9NRP7)
CHUK (human) = CHUK (human) (UniProt O15111)
TBK1 (human) = TBK1 (human) (UniProt Q9UHD2)
CDK14 (human) = CDK14 (human) (UniProt O94921)
EPHA2 (human) = EPHA2 (human) (UniProt P29317)
CSF1R (human) = CSF1R (human) (UniProt P07333)
PIK3C2B (human) = PIK3C2B (human) (UniProt O00750)
NIM1 (human) = NIM1 (human) (UniProt Q8IY84)
DSTYK (human) = DSTYK (human) (UniProt Q6XUX3)
[1] = biological target: JAK2 JH1 catalytic (human) (UniProt O60674)
RIOK1 (human) = RIOK1 (human) (UniProt Q9BRS2)
LIMK2 (human) = LIMK2 (human) (UniProt P53671)
RPS6KA2 KD1 (human) = RPS6KA2 KD1 (human) (UniProt Q15349)
MARK3 (human) = MARK3 (human) (UniProt P27448)
MAP3K5 (human) = MAP3K5 (human) (UniProt Q99683)
TNNI3K (human) = TNNI3K (human) (UniProt Q59H18)
CDK9 (human) = CDK9 (human) (UniProt P50750)
IKBKB (human) = IKBKB (human) (UniProt O14920)
SGK3 (human) = SGK3 (human) (UniProt Q96BR1)
STK24 (human) = STK24 (human) (UniProt Q9Y6E0)
ALK (human) = ALK (human) (UniProt Q9UM73)
[2] = system: KIT (human), P10721 [A829P]
AURKA (human) = AURKA (human) (UniProt O14965)
MAP2K7 (human) = MAP2K7 (human) (UniProt O14733)
STK38 (human) = STK38 (human) (UniProt Q15208)
GSK3B (human) = GSK3B (human) (UniProt P49841)
LTK (human) = LTK (human) (UniProt P29376)
PDPK1 (human) = PDPK1 (human) (UniProt O15530)
EGFR (human) = EGFR (human) (UniProt P00533)
CLK3 (human) = CLK3 (human) (UniProt P49761)
RIPK1 (human) = RIPK1 (human) (UniProt Q13546)

LTK (human), sequence (P29376 whole entry, looked up): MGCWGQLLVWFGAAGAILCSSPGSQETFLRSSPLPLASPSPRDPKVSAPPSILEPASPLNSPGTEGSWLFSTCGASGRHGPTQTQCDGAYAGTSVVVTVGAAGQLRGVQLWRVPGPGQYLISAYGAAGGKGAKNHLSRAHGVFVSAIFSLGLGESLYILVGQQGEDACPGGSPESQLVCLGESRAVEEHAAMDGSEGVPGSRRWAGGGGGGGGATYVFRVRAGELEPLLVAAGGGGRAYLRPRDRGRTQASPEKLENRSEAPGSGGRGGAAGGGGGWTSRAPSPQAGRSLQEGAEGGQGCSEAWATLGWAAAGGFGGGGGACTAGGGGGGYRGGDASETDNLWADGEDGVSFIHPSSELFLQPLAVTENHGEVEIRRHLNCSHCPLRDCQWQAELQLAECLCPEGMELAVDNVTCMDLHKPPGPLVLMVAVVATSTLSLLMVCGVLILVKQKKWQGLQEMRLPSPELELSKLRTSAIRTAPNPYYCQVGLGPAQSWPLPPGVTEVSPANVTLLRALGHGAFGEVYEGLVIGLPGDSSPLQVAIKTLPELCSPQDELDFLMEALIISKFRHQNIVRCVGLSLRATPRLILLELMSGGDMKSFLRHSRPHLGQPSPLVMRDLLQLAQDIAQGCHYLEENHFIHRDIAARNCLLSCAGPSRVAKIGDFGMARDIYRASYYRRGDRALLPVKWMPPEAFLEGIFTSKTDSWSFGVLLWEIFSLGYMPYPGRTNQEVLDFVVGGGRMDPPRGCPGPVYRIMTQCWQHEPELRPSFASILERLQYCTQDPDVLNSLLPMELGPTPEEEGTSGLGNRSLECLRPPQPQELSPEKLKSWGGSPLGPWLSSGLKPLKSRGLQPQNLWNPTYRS
ALK (human), sequence (Q9UM73 whole entry, looked up): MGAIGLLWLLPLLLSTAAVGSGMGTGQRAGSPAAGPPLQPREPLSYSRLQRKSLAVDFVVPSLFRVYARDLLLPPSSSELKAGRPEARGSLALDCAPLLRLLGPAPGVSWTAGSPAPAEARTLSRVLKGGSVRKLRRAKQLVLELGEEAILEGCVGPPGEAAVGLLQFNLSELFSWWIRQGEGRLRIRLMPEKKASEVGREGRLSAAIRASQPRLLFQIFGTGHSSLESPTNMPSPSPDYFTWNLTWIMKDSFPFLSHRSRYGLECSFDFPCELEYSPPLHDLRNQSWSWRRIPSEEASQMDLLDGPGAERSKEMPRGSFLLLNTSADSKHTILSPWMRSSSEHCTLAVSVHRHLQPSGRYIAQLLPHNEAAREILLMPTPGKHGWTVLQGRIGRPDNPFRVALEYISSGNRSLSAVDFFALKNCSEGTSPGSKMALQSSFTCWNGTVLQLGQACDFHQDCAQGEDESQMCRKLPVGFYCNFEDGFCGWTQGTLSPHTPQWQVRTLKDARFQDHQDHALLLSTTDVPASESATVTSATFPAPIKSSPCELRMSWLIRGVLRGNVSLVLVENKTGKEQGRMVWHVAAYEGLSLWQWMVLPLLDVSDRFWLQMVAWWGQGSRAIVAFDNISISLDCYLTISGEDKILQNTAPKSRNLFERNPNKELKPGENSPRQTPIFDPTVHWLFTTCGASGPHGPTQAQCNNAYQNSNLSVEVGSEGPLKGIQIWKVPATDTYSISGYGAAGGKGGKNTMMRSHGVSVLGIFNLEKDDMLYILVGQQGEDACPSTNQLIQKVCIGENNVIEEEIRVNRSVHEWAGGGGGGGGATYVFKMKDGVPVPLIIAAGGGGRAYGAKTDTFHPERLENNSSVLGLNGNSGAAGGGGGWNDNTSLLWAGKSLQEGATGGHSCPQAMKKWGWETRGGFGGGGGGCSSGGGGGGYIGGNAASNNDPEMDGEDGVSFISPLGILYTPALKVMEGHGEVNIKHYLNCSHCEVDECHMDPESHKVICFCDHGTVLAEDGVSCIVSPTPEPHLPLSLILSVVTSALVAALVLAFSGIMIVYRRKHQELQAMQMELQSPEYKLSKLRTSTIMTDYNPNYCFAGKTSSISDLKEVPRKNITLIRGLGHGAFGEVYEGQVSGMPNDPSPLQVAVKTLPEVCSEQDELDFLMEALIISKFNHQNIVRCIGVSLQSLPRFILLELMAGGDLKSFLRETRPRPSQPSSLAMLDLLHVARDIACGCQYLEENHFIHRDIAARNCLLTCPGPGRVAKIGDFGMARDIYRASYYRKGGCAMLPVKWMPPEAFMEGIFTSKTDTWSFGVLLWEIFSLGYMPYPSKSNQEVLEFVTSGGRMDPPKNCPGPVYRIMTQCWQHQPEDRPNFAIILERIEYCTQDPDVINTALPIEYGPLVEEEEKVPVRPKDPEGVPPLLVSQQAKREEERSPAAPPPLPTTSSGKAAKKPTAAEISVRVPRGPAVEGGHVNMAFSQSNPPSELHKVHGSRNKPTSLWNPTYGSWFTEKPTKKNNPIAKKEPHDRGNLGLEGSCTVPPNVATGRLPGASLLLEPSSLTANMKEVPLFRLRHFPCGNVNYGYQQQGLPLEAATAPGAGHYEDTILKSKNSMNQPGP
AURKA (human), sequence (O14965 whole entry, looked up): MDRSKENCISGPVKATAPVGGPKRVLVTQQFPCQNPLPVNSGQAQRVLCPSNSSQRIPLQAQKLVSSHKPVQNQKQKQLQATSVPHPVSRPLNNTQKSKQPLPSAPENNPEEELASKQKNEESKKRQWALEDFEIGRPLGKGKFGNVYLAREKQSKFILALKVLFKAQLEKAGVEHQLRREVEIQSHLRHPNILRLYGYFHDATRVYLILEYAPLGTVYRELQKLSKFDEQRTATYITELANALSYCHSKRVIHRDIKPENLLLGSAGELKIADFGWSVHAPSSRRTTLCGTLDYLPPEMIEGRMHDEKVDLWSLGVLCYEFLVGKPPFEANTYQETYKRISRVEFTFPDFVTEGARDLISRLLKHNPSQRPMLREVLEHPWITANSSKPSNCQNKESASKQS
STK36 (human), sequence (Q9NRP7 whole entry, looked up): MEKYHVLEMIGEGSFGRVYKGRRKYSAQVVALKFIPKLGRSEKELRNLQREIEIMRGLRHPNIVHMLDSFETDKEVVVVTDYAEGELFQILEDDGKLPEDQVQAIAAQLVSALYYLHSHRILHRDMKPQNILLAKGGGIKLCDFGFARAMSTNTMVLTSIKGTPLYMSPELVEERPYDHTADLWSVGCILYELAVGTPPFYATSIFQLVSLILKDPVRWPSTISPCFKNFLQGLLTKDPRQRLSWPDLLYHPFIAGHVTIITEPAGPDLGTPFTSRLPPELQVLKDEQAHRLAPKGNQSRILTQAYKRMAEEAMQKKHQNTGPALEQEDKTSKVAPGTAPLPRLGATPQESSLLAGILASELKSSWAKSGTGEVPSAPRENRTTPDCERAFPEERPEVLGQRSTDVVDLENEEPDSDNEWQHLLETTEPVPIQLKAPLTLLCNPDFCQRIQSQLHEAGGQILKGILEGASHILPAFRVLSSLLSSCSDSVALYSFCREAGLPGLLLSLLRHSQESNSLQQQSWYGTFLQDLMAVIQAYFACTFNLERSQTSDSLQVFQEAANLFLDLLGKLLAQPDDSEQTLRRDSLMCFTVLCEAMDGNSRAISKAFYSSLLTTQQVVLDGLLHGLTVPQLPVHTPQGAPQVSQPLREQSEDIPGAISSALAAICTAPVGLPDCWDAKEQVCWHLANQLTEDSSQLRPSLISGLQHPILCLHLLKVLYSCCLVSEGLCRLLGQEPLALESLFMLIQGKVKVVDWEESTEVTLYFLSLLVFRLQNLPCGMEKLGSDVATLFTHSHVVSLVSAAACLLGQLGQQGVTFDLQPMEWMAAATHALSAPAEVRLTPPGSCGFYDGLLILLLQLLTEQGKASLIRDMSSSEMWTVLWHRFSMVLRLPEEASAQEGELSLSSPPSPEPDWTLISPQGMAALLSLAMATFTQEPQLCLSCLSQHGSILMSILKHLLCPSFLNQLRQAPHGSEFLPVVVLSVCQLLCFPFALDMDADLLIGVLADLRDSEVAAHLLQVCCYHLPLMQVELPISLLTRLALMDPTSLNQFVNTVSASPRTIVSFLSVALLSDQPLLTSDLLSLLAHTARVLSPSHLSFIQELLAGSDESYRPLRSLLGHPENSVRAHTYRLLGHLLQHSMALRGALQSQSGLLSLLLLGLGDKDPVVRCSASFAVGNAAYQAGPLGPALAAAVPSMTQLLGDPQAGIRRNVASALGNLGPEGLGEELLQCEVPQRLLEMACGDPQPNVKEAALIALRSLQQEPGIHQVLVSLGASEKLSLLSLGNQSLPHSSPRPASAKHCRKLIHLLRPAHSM
STK11 (human), sequence (Q15831 whole entry, looked up): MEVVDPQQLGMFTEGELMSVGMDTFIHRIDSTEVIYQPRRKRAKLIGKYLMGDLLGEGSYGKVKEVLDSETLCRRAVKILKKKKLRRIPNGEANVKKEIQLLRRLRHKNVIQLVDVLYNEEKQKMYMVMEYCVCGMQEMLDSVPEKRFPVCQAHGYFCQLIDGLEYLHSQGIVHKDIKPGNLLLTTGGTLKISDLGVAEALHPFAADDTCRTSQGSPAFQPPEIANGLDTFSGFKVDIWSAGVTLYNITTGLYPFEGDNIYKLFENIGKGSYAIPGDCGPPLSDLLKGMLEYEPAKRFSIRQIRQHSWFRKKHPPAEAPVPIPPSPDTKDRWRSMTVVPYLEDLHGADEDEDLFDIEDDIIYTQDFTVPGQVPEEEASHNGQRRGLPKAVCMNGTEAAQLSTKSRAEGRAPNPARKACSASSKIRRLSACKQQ
CDK14 (human), sequence (O94921 whole entry, looked up): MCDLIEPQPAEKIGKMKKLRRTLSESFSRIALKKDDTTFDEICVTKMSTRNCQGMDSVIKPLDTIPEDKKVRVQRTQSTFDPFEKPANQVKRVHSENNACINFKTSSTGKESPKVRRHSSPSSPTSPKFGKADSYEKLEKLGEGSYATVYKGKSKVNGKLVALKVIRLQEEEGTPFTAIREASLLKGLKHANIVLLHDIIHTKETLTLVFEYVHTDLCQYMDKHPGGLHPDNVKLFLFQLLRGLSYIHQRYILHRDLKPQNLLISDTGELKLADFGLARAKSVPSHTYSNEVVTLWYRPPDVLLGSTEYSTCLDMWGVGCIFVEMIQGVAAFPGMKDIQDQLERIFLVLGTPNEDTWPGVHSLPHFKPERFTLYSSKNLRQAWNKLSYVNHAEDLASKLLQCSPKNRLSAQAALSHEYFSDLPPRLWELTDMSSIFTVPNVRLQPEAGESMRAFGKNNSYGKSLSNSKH

SMILES | kinase still bound, per cent of control (KDR (human)) [%] | kinase still bound, per cent of control (RPS6KA6 KD1 (human)) [%] | kinase still bound, per cent of control (ROS1 (human)) [%] | kinase still bound, per cent of control (STK25 (human)) [%] | kinase still bound, per cent of control (STK17A (human)) [%] | kinase still bound, per cent of control (MLTK (human)) [%] | kinase still bound, per cent of control (STK11 (human)) [%] | kinase still bound, per cent of control (FLT4 (human)) [%] | kinase still bound, per cent of control (PLK2 (human)) [%] | kinase still bound, per cent of control (STK36 (human)) [%] | kinase still bound, per cent of control (CHUK (human)) [%] | kinase still bound, per cent of control (TBK1 (human)) [%] | kinase still bound, per cent of control (CDK14 (human)) [%] | kinase still bound, per cent of control (EPHA2 (human)) [%] | kinase still bound, per cent of control (CSF1R (human)) [%] | kinase still bound, per cent of control (PIK3C2B (human)) [%] | kinase still bound, per cent of control (NIM1 (human)) [%] | kinase still bound, per cent of control (DSTYK (human)) [%] | kinase still bound, per cent of control [1] [%] | kinase still bound, per cent of control (RIOK1 (human)) [%] | other results
C=CC(=O)Nc1ccc(C(=O)c2sc(Nc3ccc(N4CCN(C)CC4)cc3OC)nc2N)cc1 | 100 | 50 | 38 | 100 | 100 | 100 | 86 | 100 | 81 | 90 | 59 | 100 | 82 | 96 | 58 | 100 | 91 | 4.7 | 74 | 37 | kinase still bound, per cent of control (LIMK2 (human)): 100%; kinase still bound, per cent of control (RPS6KA2 KD1 (human)): 97%; kinase still bound, per cent of control (MARK3 (human)): 100%; kinase still bound, per cent of control (MAP3K5 (human)): 100%; kinase still bound, per cent of control (TNNI3K (human)): 89%; kinase still bound, per cent of control (CDK9 (human)): 85%; kinase still bound, per cent of control (IKBKB (human)): 85%; kinase still bound, per cent of control (SGK3 (human)): 83%; kinase still bound, per cent of control (STK24 (human)): 71%; kinase still bound, per cent of control (ALK (human)): 8.4%; kinase still bound, per cent of control [2]: 63%; kinase still bound, per cent of control (AURKA (human)): 93%; kinase still bound, per cent of control (MAP2K7 (human)): 93%; kinase still bound, per cent of control (STK38 (human)): 67%; kinase still bound, per cent of control (GSK3B (human)): 100%; kinase still bound, per cent of control (LTK (human)): 5.6%; kinase still bound, per cent of control (PDPK1 (human)): 100%; kinase still bound, per cent of control (EGFR (human)): 84%; kinase still bound, per cent of control (CLK3 (human)): 8.9%; kinase still bound, per cent of control (RIPK1 (human)): 100%
N#Cc1cc(-c2ccnc(Nc3ccc(-n4cnc(-c5cccnc5)n4)cc3)n2)cc(N2CCOCC2)c1 | 75 | 60 | 17 | 64 | 49 | 17 | 11 | 84 | 98 | 15 | 55 | 35 | 35 | 56 | 14 | 76 | 58 | 76 | 0 | 3.8 | kinase still bound, per cent of control (LIMK2 (human)): 60%; kinase still bound, per cent of control (RPS6KA2 KD1 (human)): 73%; kinase still bound, per cent of control (MARK3 (human)): 100%; kinase still bound, per cent of control (MAP3K5 (human)): 100%; kinase still bound, per cent of control (TNNI3K (human)): 80%; kinase still bound, per cent of control (CDK9 (human)): 2.1%; kinase still bound, per cent of control (IKBKB (human)): 38%; kinase still bound, per cent of control (SGK3 (human)): 100%; kinase still bound, per cent of control (STK24 (human)): 70%; kinase still bound, per cent of control (ALK (human)): 100%; kinase still bound, per cent of control [2]: 51%; kinase still bound, per cent of control (AURKA (human)): 93%; kinase still bound, per cent of control (MAP2K7 (human)): 100%; kinase still bound, per cent of control (STK38 (human)): 92%; kinase still bound, per cent of control (GSK3B (human)): 3.1%; kinase still bound, per cent of control (LTK (human)): 77%; kinase still bound, per cent of control (PDPK1 (human)): 100%; kinase still bound, per cent of control (EGFR (human)): 71%; kinase still bound, per cent of control (CLK3 (human)): 59%; kinase still bound, per cent of control (RIPK1 (human)): 7.8%
